Several values for one entry are separate records, joined by “and”; a condition that tells them apart may be missing. Equal values may be shown once.

Assay type in all cases: physicochemical
Data set [1] in a line: Maximum absorption wavelength (λmax) after color development, spectrophotometer MCPD3000. Conditions: photochromic laminate by coating method, 40 µm photochromic layer on thiourethane lens, 0.25 mmol compound per 100 g monomers. The procedure, abridged:
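Read-out: absorbance at λmax, multichannel photodetector spectrophotometer. Colour density = ε(240) − ε(0), 240 s light, 23°C. τ1/2 = time for ε(240) − ε(0) to halve after light off. Residual rate compares density before and after 90 h xenon weathering.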

Data set [2] in a line: 23°C color optical density (A23): absorbancy difference ε(240)-ε(0) after 240 s light irradiation at 23°C. Conditions: photochromic laminate by coating method, 240 s irradiation, at the maximum absorption wavelength. The gist of the method:
(§1)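 Photochromic plastic lens samples were irradiated for 240 s at 23°C, and colour density was taken as the absorbance change at the absorption maximum. Fading half-life was timed from the end of irradiation until that absorbance change fell by half. Durability compared colour density before and after xenon-lamp ageing.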

The nature of data set [3]: 35°C color optical density (A35): absorbancy difference ε(240)-ε(0) after 240 s light irradiation at 35°C. Conditions: photochromic laminate by coating method, 240 s irradiation. The procedure, abridged:
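A photochromic cured product was irradiated with light at 35°C for 240 seconds. The 35°C color optical density (A35) was the absorbancy after irradiation {ε(240)} minus the absorbancy without irradiation ε(0), read at the first and second absorption wavelengths. It served as an indicator of color optical density.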

Data set [4] is described as follows: High-temperature color development rate (A35/A23×100), temperature dependency. Conditions: photochromic laminate by coating method. The gist of the method:
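Color optical density was taken as the absorbance after 240 seconds of light irradiation, ε(240), minus the absorbance without irradiation, ε(0), at the absorption maximum. It was measured at 23°C (A23) and at 35°C (A35), and the ratio A35/A23×100 served as the high-temperature color development rate, showing temperature dependency.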

A short description of data set [5]: 23°C color fading half-life τ1/2 after 240 s light irradiation. As to the method: • [1] Maximum Absorption Wavelength (λmax): The maximum absorption wavelength after color development, measured using a spectrophotometer (instantaneous multichannel photodetector MCPD3000) manufactured by Otsuka Electronics Co., Ltd. was used as an indicator for the color tone during the color development. • [2] 23°C Color Optical Density (A23): A difference between an absorbancy measured after light irradiation at 23°C for 240 seconds {ε(240)} and an absorbancy without light irradiation ε(0) at the maximum absorption wavelength was used as an indicator for the color optical density. […] 35°C Color Optical Density (A35): A difference between an absorbancy measured after light irradiation at 35°C for 240 seconds {ε(240)} and an absorbancy without light irradiation ε(0) at the first and second absorption wavelengths was used as an indicator for the color optical density. […] 23°C color fading half-life [τ1/2 (sec.)]: A time required for the absorbancy of the sample at the maximum absorption wavelength to decrease to 1/2 of {ε(240)-ε(0)} when the light irradiation is terminated after the light irradiation at 23°C for 240 seconds, was used as an indicator for the color fading speed. The shorter this time, the higher the color fading speed. • [6] Residual rate (A90/A0×100): The obtained photochromic plastic lens was subjected to accelerated deterioration using a xenon weather meter X25 manufactured by Suga Test Instruments Co., Ltd. for 90 hours. Subsequently, the color optical density was evaluated before and after the test, then a color optical density before the test (A0) and a color optical density after the test (A90) were measured, and a ratio (A90/A0) was defined as a residual rate. The residual rate was used as an indicator for a color developing durability. The higher the residual rate, the higher the color developing durability.

Data set [6] is described as follows: Residual rate (A90/A0×100) after 90 h accelerated deterioration in xenon weather meter X25, color developing durability. Conditions: photochromic laminate by coating method, xenon weather meter 90 hours. The gist of the method:
as §1

As to `CCCC1(CCC)c2ccccc2-c2c1c1c(c3cc(OC)c(N(c4ccccc4)c4ccccc4)cc23)OC(c2ccc(OC)cc2)(c2ccc(N3CCOCC3)cc2)C=C1` (stereo not shown) [Example 7 Formula (50)], the figures for the “Maximum absorption wavelength (nm)” value in data set [1] (at 522 nm absorption maximum) and in data set [1] (at 615 nm absorption maximum) were 522 nm and 615 nm, respectively. In addition, the “A23 (-)” value is 1.19 - in data set [2] (at 522 nm absorption maximum) and 1.14 - in data set [2] (at 615 nm absorption maximum). The “A35 (-)” value in data set [3] (at 522 nm absorption maximum) is given as 0.74 -; in data set [3] (at 615 nm absorption maximum) it was 0.71 -. Moreover, the “A35/A23 *100 (%)” value in data set [4] is on record as 62%. The “23°C color fading half-life” value in data set [5] was found to be 44 s. The “Residual rate (%)” value in data set [6] (at 522 nm absorption maximum) turned out to be 77%; in data set [6] (at 615 nm absorption maximum), 76%.
As for `CCCCN(c1ccc(F)cc1)c1cc2c3c(c4c(c2cc1OC)OC(c1ccc(OC)cc1)(c1ccc(OC)cc1)C=C4)C(CCCCOC)(CCCCOC)c1ccccc1-3` [Example 16 Formula (77)], the “Maximum absorption wavelength (nm)” value in data set [1] is 498 nm. Besides, the “A23 (-)” value in data set [2] was 1.25 -. Also, the “A35 (-)” value in data set [3] is 0.84 -. In addition, in data set [4], the “A35/A23 *100 (%)” value is 67%. The “23°C color fading half-life” value in data set [5] was 72 s. In addition, the “Residual rate (%)” value in data set [6] was 80%.
Consider `CCCC1(CCC)c2cc(C)ccc2-c2c1c1c(c3cc(OC)c(N(C)c4ccccc4)cc23)OC(c2ccc(OC)cc2)(c2ccc(OC)cc2)C=C1` [Example 18 Formula (81)], for which the “Maximum absorption wavelength (nm)” value in data set [1] came out at 493 nm. In addition, the “A23 (-)” value in data set [2] was 1.25 -. In addition, the “A35 (-)” value in data set [3] is reported as 0.88 -. Further, in data set [4], the “A35/A23 *100 (%)” value was found to be 70%. Also, the “23°C color fading half-life” value in data set [5] is 98 s. In addition, the “Residual rate (%)” value in data set [6] came out at 78%.
Turning to `CCCC1(CCC)c2ccccc2-c2c1c1c(c3cc(OC)c(N(c4ccccc4)c4ccccc4)cc23)OC(c2ccc(C)cc2)(c2ccc(N(C)c3ccccc3)cc2)C=C1` (stereo not shown) [Example 22 Formula (89)], in data set [1], the “Maximum absorption wavelength (nm)” value was 530 nm. Further, the “A23 (-)” value in data set [2] is recorded as 1.51 -. Also, in data set [3], the “A35 (-)” value is on record as 1.03 -. In addition, in data set [4], the “A35/A23 *100 (%)” value is on record as 68%. Further, the “23°C color fading half-life” value in data set [5] worked out at 75 s. Besides, the “Residual rate (%)” value in data set [6] stood at 76%.
Take `CCCOc1ccc(C2(c3ccc(OC)cc3)C=Cc3c4c(c5cc(N(c6ccc(C(F)(F)F)cc6)c6ccc(C(F)(F)F)cc6)c(OC)cc5c3O2)-c2ccccc2C4(CCCCOC)CCCCOC)cc1` (stereo not shown) [Example 11 Formula (63)]: the “Maximum absorption wavelength (nm)” value in data set [1] (at 462 nm absorption maximum) was 462 nm; in data set [1] (at 576 nm absorption maximum), 576 nm. The “A23 (-)” value in data set [2] (at 462 nm absorption maximum) is listed as 0.75 -; in data set [2] (at 576 nm absorption maximum) it was 0.66 -. In addition, the results for the “A35 (-)” value in data set [3] (at 462 nm absorption maximum) and in data set [3] (at 576 nm absorption maximum) were 0.46 - and 0.41 -, respectively. Besides, the “A35/A23 *100 (%)” value in data set [4] is on record as 61%. In addition, in data set [5], the “23°C color fading half-life” value stood at 40 s. The “Residual rate (%)” value in data set [6] was 83%.
As for `COCCCC1(CCCOC)c2cc(Sc3c(C)cccc3C)ccc2-c2c1c1c(c3cc(OC)c(N(CCOC)c4ccc(C(F)(F)F)cc4)cc23)OC(c2ccc(OC)cc2)(c2ccc(OC)cc2)C=C1` [Example 57 Formula (132)], the “Maximum absorption wavelength (nm)” value in data set [1] was 468 nm and 597 nm. The “A23 (-)” value in data set [2] was 0.66 - and 0.71 -. Further, the “A35 (-)” value in data set [3] is 0.44 - and 0.48 -. Besides, the “A35/A23 *100 (%)” value in data set [4] was 67% and 68%. Further, in data set [5], the “23°C color fading half-life” value was found to be 47 s. In addition, the “Residual rate (%)” value in data set [6] is on record as 77%.
For `CCCC1(CCC)c2ccccc2-c2c1c1c(c3cc(OC)c(N(C)c4ccccc4)cc23)OC(c2ccc(OC)cc2)(c2ccc(N(c3ccccc3)c3ccccc3)cc2)C=C1` (stereo not shown) [Example 21 Formula (87)], the “Maximum absorption wavelength (nm)” value in data set [1] was determined as 524 nm. Further, the “A23 (-)” value in data set [2] is recorded as 1.26 -. In data set [3], the “A35 (-)” value is recorded as 0.87 -. In addition, the “A35/A23 *100 (%)” value in data set [4] is 69%. The “23°C color fading half-life” value in data set [5] was 97 s. Moreover, the “Residual rate (%)” value in data set [6] was 80%.
On to `CCCCN(c1ccccc1)c1cc2c3c(c4c(c2cc1OC)OC(c1ccc(OC)cc1)(c1ccc(OCCC)cc1)C=C4)C(CC)(CC)c1cc(OC(F)(F)F)ccc1-3` (stereo not shown) [Example 51 Formula (117)], for which the “Maximum absorption wavelength (nm)” value in data set [1] was found to be 501 nm. Further, the “A23 (-)” value in data set [2] was 0.98 -. The “A35 (-)” value in data set [3] is given as 0.61 -. Also, the “A35/A23 *100 (%)” value in data set [4] is given as 62%. For the same compound, in data set [5], the “23°C color fading half-life” value stood at 38 s. In addition, the “Residual rate (%)” value in data set [6] stood at 75%.

Source of the values: patent publication EP4692071A1, “PHOTOCHROMIC COMPOUND, NAPHTHOL DERIVATIVE, CURABLE COMPOSITION, OPTICAL ARTICLE, LENS, AND EYEGLASS” (TOKUYAMA CORPORATION, priority 2023, dated 2024).
